The results in this text go back to patent US20060063784A1, “Method of using substituted pyrazolo [1,5-a] pyrimidines” (priority 2004, published 2006).

Some results are limits rather than exact numbers.

Broadly, the IC50 is the point on the concentration scale where inhibition reaches its midpoint.

The first test has as its system 80S14 (p21-deficient) cells. The test can be described thus: Cytotoxicity assay using isogenic cell lines: IC50 in 80S14 (p21-deficient) cells, SRB. In kind it is cell-based, human. The conditions noted are these: 80S14 (p21-deficient) cells, 5 days, SRB; class symbols; read-out: IC50 for 80S14. In short, it runs like this:
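80S14 (p21-deficient) cells seeded at 12,000 cells/well overnight, then exposed 5 days at 37 °C to serial dilutions (5 pM–50 μM or 170 pg/ml–10 μg/ml). TCA-fixed, sulforhodamine B-stained, absorbance at 560 nm; IC50 taken from cytotoxicity curves versus untreated controls.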
With “1-Methyl-N-{3-[3-(thien-2-ylcarbonyl)pyrazolo[1,5-a]pyrimidin-7-yl]phenyl}piperidine-4-carboxaamide [Example 417]”, the IC50 is 10 to 50 µM. Still for that read-out and setting: the result for “N,N′-diethyl-3-[3-(2-thienylcarbonyl)-pyrazolo[1,5-a]pyrimidin-7-yl]-benzamide [Example 248]” reads 10 to 50 µM.

The same test, now with this note: 80S14 p21-deficient cells, 5 days incubation, SRB; read-out: IC50 for 80SI4.
For `C[C@H](N)C(=O)Nc1cccc(-c2ccnc3c(C(=O)c4cccs4)cnn23)c1` [Example 78, N-1-{3-[3-(thien-2-ylcarbonyl)pyrazolo[1,5-a]pyrimidin-7-yl]phenyl}-L-alaninamide], the IC50 was in the range of 1 to 10 µM. The same measure, in the same setting: the result for `C=C(C)OC(=O)Nc1cccc(-c2ccnc3c(C(=O)c4cccs4)cnn23)c1` [Example 21] reads under 1 µM; that for `O=C(c1cccs1)c1cnn2c(-c3cccc(NC(=O)[C@@H]4CCCN4)c3)ccnc12` [Example 85], 1 to 10 µM.

The same test, now with this note: Homo sapiens, 80S14, 120 h, read-out: IC50 for 80S14 (uM).
With `CCC(=O)N(C)c1cccc(-c2ccnc3c(C(=O)c4cccs4)cnn23)c1` [Example 237, N-Methyl-N-[3-[3-(2-thienylcarbonyl)-pyrazolo[1,5-a]pyrimidin-7-yl]phenyl}-propanamide], the IC50 lay within 1 to 10 µM.

Still in this test, the particulars now being: Homo sapiens, 120 h; 80S14 (p21-deficient) cells, 5 days, SRB; class symbols; read-out: IC50 for 80S14.
Turning to `CNc1cccc(-c2ccnc3c(C(=O)c4ccccc4)cnn23)c1` [Example 231, [7-[3-(Methylamino)phenyl]pyrazolo[1,5-a]-pyrimidin-3-yl}phenyl-methanone], the concentration for half-maximal inhibition (IC50) was 10 to 50 µM. Regarding `Cc1ccc(C(=O)c2cnn3c(-c4cccc(N(C)C(=O)C5CC5)c4)ccnc23)cc1` [Example 268, N-Methyl-N-[3-[3-(4-methylbenzoyl)pyrazolo[1,5-a]pyrimidin-7-yl]phenyl}-cyclopropanecarboxamide], the IC50 lay within 10 to 50 µM. On the same count and under the same terms, the result for `CC(C)CNC(=O)c1cccc(-c2ccnc3c(C(=O)c4cccs4)cnn23)c1` [Example 318, N-Isobutyl-3-[3-(2-thienylcarbonyl)pyrazolo[1,5-a]pyrimidin-7-yl]benzamide] reads under 1 µM.

In the case of `O=[N+]([O-])c1cccc(-c2ccnc3c(-c4ccsc4)cnn23)c1` [Example 325, 7-(3-Nitrophenyl)-3-(3-thienyl)pyrazolo[1,5-a]pyrimidine], the IC50 lay within 10 to 50 µM. For the molecule `O=C(c1ccccc1)c1cnn2c(-c3cccc(NC(=O)C4CC4)c3)ccnc12` [Example 230, N-[3-(3-Benzoylpyrazolo-[1,5-a]pyrimidin-7-yl)phenyl]-cyclopropanecarboxamide], the IC50 lay in the range of 1 to 10 µM. With `O=C(c1cccs1)c1cnn2c(-c3cccc(NC/C=C/c4ccccc4)c3)ccnc12` [Example 412, [7-(3-{[(2E)-3-Phenylprop-2-enyl]amino}phenyl)pyrazolo[1,5-a]pyrimidin-3-yl] (thien-2-yl)methanone], the IC50 was 10 to 50 µM. Turning to `COc1cc(/C=C/CNc2cccc(-c3ccnc4c(C(=O)c5cccs5)cnn34)c2)ccc1O` [Example 401, [7-(3-{[(2E)-3-(4-Hydroxy-3-methoxyphenyl)prop-2-enyl]amino}phenyl)pyrazolo[1,5-a]pyrimidin-3-yl](thien-2-yl)methanone], the half-inhibitory concentration (IC50) fell in the range of 10 to 50 µM.

The same test, now with this note: Homo sapiens, 120 h; 80S14 p21-deficient cells, 5 days incubation, SRB; read-out: IC50 for 80SI4.
With `CC(C)CC(C)OC(=O)Nc1cccc(-c2ccnc3c(C(=O)c4cccs4)cnn23)c1` (stereo not drawn) [Example 185, 1,3-dimethylbutyl3-[3-(thien-2-ylcarbonyl)pyrazolo[1,5-a]pyrimidin-7-yl]phenylcarbamate], the IC50 lay in the range of 1 to 10 µM. In the case of `O=C(Nc1cccc(-c2ccnc3c(C(=O)c4cccs4)cnn23)c1)OCCN1CCOCC1` [Example 181, 2-morpholin-4-ylethyl 3-[3-(thien-2-ylcarbonyl)pyrazolo[1,5-a]pyrimidin-7-yl]phenylcarbamate], the IC50 is under 1 µM.

Turning to `O=C(CCC1CCCC1)Nc1cccc(-c2ccnc3c(C(=O)c4cccs4)cnn23)c1` [Example 146, 3-cyclopentyl-N-{3-[3-(thien-2-ylcarbonyl)pyrazolo[1,5-a]pyrimidin-7-yl]phenyl}propanamide], the IC50 lay in the range of 1 to 10 µM. On the same count and under the same terms, the value for `CCCOC(=O)NCC(=O)Nc1cccc(-c2ccnc3c(C(=O)c4cccs4)cnn23)c1` [Example 114, propyl 2-oxo-2-({3-[3-(thien-2-ylcarbonyl)pyrazolo[1,5-a]pyrimidin-7-yl]phenyl}amino)ethylcarbamate] was 10 to 50 µM. The same measure, in the same setting: the result for `CN(C)S(=O)(=O)Nc1cccc(-c2ccnc3c(C(=O)c4cccs4)cnn23)c1` [Example 40, N,N-dimethyl-N′-{3-[3-(thien-2-ylcarbonyl)pyrazolo[1,5-a]pyrimidin-7-yl]phenyl}sulfamide] reads 1 to 10 µM.

Consider `CCCCCc1ccc(C(=O)Nc2cccc(-c3ccnc4c(C(=O)c5cccs5)cnn34)c2)cc1` [Example 92, 4-pentyl-N-{3-[3-(thien-2-ylcarbonyl)pyrazolo[1,5-a]pyrimidin-7-yl]phenyl}benzamide], for which the IC50 was in the range of 10 to 50 µM. Same read-out and setting: the value for `CC1(C(=O)Nc2cccc(-c3ccnc4c(C(=O)c5cccs5)cnn34)c2)CCCCC1` [Example 143, 1-methyl-N-{3-[3-(thien-2-ylcarbonyl)pyrazolo[1,5-a]pyrimidin-7-yl]phenyl}cyclohexanecarboxamide] was under 1 µM; that for `CC(C)C(C)OC(=O)Nc1cccc(-c2ccnc3c(C(=O)c4cccs4)cnn23)c1` (stereo not drawn) [Example 191, 1,2-dimethylpropyl 3-[3-(thien-2-ylcarbonyl)pyrazolo[1,5-a]pyrimidin-7-yl]phenylcarbamate] was under 1 µM. Same read-out and setting: the value for `O=C(CC1Cc2ccccc2C1)Nc1cccc(-c2ccnc3c(C(=O)c4cccs4)cnn23)c1` [Example 67, 2-(2,3-dihydro-1H-inden-2-yl)-N-{3-[3-(thien-2-ylcarbonyl)pyrazolo[1,5-a]pyrimidin-7-yl]phenyl}acetamide] was under 1 µM; that for `O=C(CNC(=O)C1CCCC1)Nc1cccc(-c2ccnc3c(C(=O)c4cccs4)cnn23)c1` [Example 128, N-[2-oxo-2-({3-[3-(thien-2-ylcarbonyl)pyrazolo[1,5-a]pyrimidin-7-yl]phenyl}amino)ethyl]cyclopentanecarboxamide] was 1 to 10 µM.

`N[C@@H](Cc1ccccc1)C(=O)Nc1cccc(-c2ccnc3c(C(=O)c4cccs4)cnn23)c1` [Example 81, N-{3-[3-(thien-2-ylcarbonyl)pyrazolo[1,5-a]pyrimidin-7-yl]phenyl}-L-phenylalaninamide]: the concentration for half-maximal inhibition (IC50) was 10 to 50 µM. Still for that read-out and setting: the result for `CCOC(=O)C(=O)Nc1cccc(-c2ccnc3c(C(=O)c4cccs4)cnn23)c1` [Example 41, ethyl oxo({3-[3-(thien-2-ylcarbonyl)pyrazolo[1,5-a]pyrimidin-7-yl]phenyl}amino)acetate] reads 10 to 50 µM; that for `C#CCOC(=O)NCC(=O)Nc1cccc(-c2ccnc3c(C(=O)c4cccs4)cnn23)c1` [Example 123, prop-2-ynyl 2-oxo-2-({3-[3-(thien-2-ylcarbonyl)pyrazolo[1,5-a]pyrimidin-7-yl]phenyl}amino)ethylcarbamate], 1 to 10 µM; that for `O=C(Nc1cccc(-c2ccnc3c(C(=O)c4cccs4)cnn23)c1)OCCN1CCCCC1` [Example 180, 2-piperidin-1-ylethyl 3-[3-(thien-2-ylcarbonyl)pyrazolo[1,5-a]pyrimidin-7-yl]phenylcarbamate], 1 to 10 µM. Same read-out and setting: the value for `NCCCC(=O)Nc1cccc(-c2ccnc3c(C(=O)c4cccs4)cnn23)c1` [Example 84, 4-amino-N-{3-[3-(thien-2-ylcarbonyl)pyrazolo[1,5-a]pyrimidin-7-yl]phenyl}butanamide] was 10 to 50 µM; that for `C=C(C)C(=O)Nc1cccc(-c2ccnc3c(C(=O)c4cccs4)cnn23)c1` [Example 43, 2-methyl-N-{3-[3-(thien-2-ylcarbonyl)pyrazolo[1,5-a]pyrimidin-7-yl]phenyl}acrylamide] was under 1 µM. As to `CC(C)S(=O)(=O)Nc1cccc(-c2ccnc3c(C(=O)c4cccs4)cnn23)c1` [Example 30, N-{3-[3-(thien-2-ylcarbonyl)pyrazolo[1,5-a]pyrimidin-7-yl]phenyl} propane-2-sulfonamide], the IC50 lay in the range of 1 to 10 µM. `CCC(CC)C(=O)NCC(=O)Nc1cccc(-c2ccnc3c(C(=O)c4cccs4)cnn23)c1` [Example 131, 2-ethyl-N-[2-oxo-2-({3-[3-(thien-2-ylcarbonyl)pyrazolo[1,5-a]pyrimidin-7-yl]phenyl}amino)ethyl]butanamide]: the half-maximal inhibitory concentration (IC50) is 10 to 50 µM.

With `C=CCNC(=O)Nc1cccc(-c2ccnc3c(C(=O)c4cccs4)cnn23)c1` [Example 7, N-allyl-N′-{3-[3-(thien-2-ylcarbonyl)pyrazolo[1,5-a]pyrimidin-7-yl]phenyl}urea], the IC50 is under 1 µM.

As for `Cc1ccc(S(=O)(=O)Nc2cccc(-c3ccnc4c(C(=O)c5cccs5)cnn34)c2)cc1` [Example 32, 4-methyl-N-{3-[3-(thien-2-ylcarbonyl)pyrazolo[1,5-a]pyrimidin-7-yl]phenyl}benzenesulfonamide], the IC50 is under 1 µM.

For `CC(C)=CC(=O)Nc1cccc(-c2ccnc3c(C(=O)c4cccs4)cnn23)c1` [Example 45, 3-methyl-N-{3-[3-(thien-2-ylcarbonyl)pyrazolo[1,5-a]pyrimidin-7-yl]phenyl}but-2-enamide], the IC50 is under 1 µM. On to `O=C(Cc1ccc2c(c1)OCO2)Nc1cccc(-c2ccnc3c(C(=O)c4cccs4)cnn23)c1` [Example 69, 2-(1,3-benzodioxol-5-yl)-N-{3-[3-(thien-2-ylcarbonyl)pyrazolo[1,5-a]pyrimidin-7-yl]phenyl}acetamide], for which the IC50 is under 1 µM.

As to `O=C(Nc1cccc(-c2ccnc3c(C(=O)c4cccs4)cnn23)c1)OCCc1ccsc1` [Example 179, 2-thien-3-ylethyl 3-[3-(thien-2-ylcarbonyl)pyrazolo[1,5-a]pyrimidin-7-yl]phenylcarbamate], the IC50 lay within 1 to 10 µM.
